Values of other authors as cited in patent US20220400668A1, “MICROEMULSION COMPOSITIONS OF TOPRAMEZONE” (BASF SE, priority 2018, published 2022).

Details: 25° C.

**Q.** For Cc1c(C(=O)c2cnn(C)c2O)ccc(S(C)(=O)=O)c1C1=NOCC1 [topramezone, 4-[3-(4,5-dihydro-1,2-oxazol-3-yl)-2-methyl-4-methylsulfonylbenzoyl]-2-methyl-1H-pyrazol-3-one], which solubility in water is on record?
**A.** about 0.305 g/L
